Results published in PubChem BioAssay AID179 (DTP/NCI, 2004).
The source made the active and inactive calls.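 The calls were made as follows: active = compounds giving half or more protection of infected cells from virus-caused growth loss, again on retest; inactive = the rest.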

Tested on: CEM cells HIV-1 protection, formazan growth assay
Test: NCI AIDS Antiviral Assay
Conditions: for IC50: measured here: growth of uninfected CEM cells
Method in brief: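 CEM (human) cells, HIV-1 infected vs uninfected, 5-point dosing, formazan growth read-out. Retest threshold 50% protection.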

Compound | EC50 [µM] | IC50 [µM] | outcome
CC(CC1c2ccccc2CCc2ccccc21)CN(C)C (stereo unspecified) | > 200 | 33.1 | 
O=c1c([Se]c2coc3ccccc3c2=O)coc2ccccc12 | > 10.2 | > 10.2 | 
CCOC(=O)NC(Nc1ccc(C(=O)O)cc1)(C(F)(F)F)C(F)(F)F | > 200 | > 200 | 
CCOC(=O)CC(C)P(c1ccccc1)C(C)CC(=O)OCC (stereo unspecified) | > 741 | > 741 | 
O=S1(=O)c2ccccc2NC(=S)CC1c1ccccc1 (stereo unspecified) | > 200 | 129 | 
COc1ccc2c(C3(C)OC(=O)c4ccccc43)cccc2c1 (stereo unspecified) | > 40.7 | > 40.7 | 
CC(=O)NC1(NC(C)=O)C2CC(C1Cc1ccccc1)C(C)(C)C2C (stereo unspecified) | > 724 | > 724 | 
CC1C[N+]2(CNC(=O)C3=C(O)C4(O)C(=O)C5=C(O)c6c(O)cccc6C(C)(O)C5CC4C(N(C)C)C3=O)CC(C)O[B-]2(c2ccccc2)O1 (stereo unspecified) | > 138 | 105 | 
O=C1NN=C2CCCCCCC12Cl (stereo unspecified) | > 1050 | 158 | 
CCCCCCN(CCCCCC)CC(=O)Nc1ccc(S(=O)(=O)c2ccc(NC(=O)CN(CCCCCC)CCCCCC)cc2)cc1 | > 200 | 11.5 | 
NNS(=O)(=O)c1ccc(OCC(=O)O)cc1 | > 200 | 182 | 
O=S(Cc1ccccc1)c1ccccc1Cn1cccc1 (stereo unspecified) | > 200 | 158 | 
CCCc1cc(=O)oc2c3c(c4c(c12)OC(C)(C)C=C4)O[C@H](C)[C@@H](C)[C@H]3O[Si](C)(C)C(C)(C)C | > 200 | > 200 | 
Clc1ccc(OCc2nnc(CCCCCCCCc3nnc(COc4ccc(Cl)cc4Cl)n3Nc3ccccc3)n2Nc2ccccc2)c(Cl)c1 | > 0.501 | > 0.501 | 
CCc1cccc(C(C)CC)c1N=C(NC(=O)c1ccccc1C(=O)NC(=Nc1c(CC)cccc1C(C)CC)SC)SC (stereo unspecified) | > 56.2 | > 56.2 | 
O=[N+]([O-])c1ccc2c(c1)c1nn2CCCCOc2nn(c3ccc([N+](=O)[O-])cc23)CCCCO1 | > 200 | > 200 | 
c1ccc(C2(c3ccccc3)OCCO2)cc1 | > 200 | > 200 | 
CCCCCCCCCCCCOC1C(COCCN2CCCCC2)OC2OC(C)(C)OC21 (stereo unspecified) | > 200 | 2.63 | 
Cc1nc2c(c(=O)[nH]1)S/C(=C(/C#N)c1nc3ccccc3[nH]1)N2c1ccccc1 | > 3.63 | > 3.63 | 
CCCCCCCCCCCCCCCC(=O)Nc1ccn(C2CCC(COP(=O)(O)OCC(COP(=O)(O)OCC3OC(n4cc(C)c(=O)[nH]c4=O)CC3N=[N+]=[N-])OC(=O)CCCCCCCCCCCCCCC)O2)c(=O)n1 (stereo unspecified) | 0.0182 | 50.1 | 
Nc1nc(=Nc2ccccc2)ss1 |  |  | inactive
CN(C)c1c(C2CC(O)C(CO)O2)c(=O)c1=O (stereo unspecified) | > 200 | > 200 | 

Compound | EC50 [µM] | IC50 [µM] | outcome
COCCN(CCOC)C1C2=C(CCCC2)OS(=O)(=O)C1c1ccccc1 (stereo unspecified) | > 66.1 | > 66.1 | 
CSc1nc(NC2OC(CO)C(O)C(O)C2O)cc(=O)n1C (stereo unspecified) |  |  | inactive
O=C(CC1(O)C(=O)Nc2ccc(Br)cc21)c1ccc(Cl)cc1 (stereo unspecified) | > 93.3 | > 93.3 | 
CCN(CC)CCOC(=O)C(c1ccccc1)c1ccccc1 | > 200 | > 200 | 
O=C(O)[C@@H]1C[C@@H](O)CN1C(=O)OCc1ccccc1 |  |  | inactive
O=C1C[C@@H]([C@H](NC(=O)OCc2ccccc2)C(=O)O)ON1 |  |  | inactive
O=C(O)CCC(=O)NNC(=O)CCC(=O)O | > 155 | > 155 | 
O=C1/C(=N\N(C(=O)c2ccccc2)c2ccccc2)c2cccc3cccc1c23 | > 3.8 | > 3.8 | 
N#Cc1cc2c(cc1Cl)Sc1nccn1S2(=O)=O | > 200 | 0.851 | 
CCN(CC)CCC(=O)c1ccc(Oc2ccccc2)cc1 | > 200 | 17.4 | 
[O-][n+]1ccccc1CCN(O)Cc1ccccc1 | > 200 | > 200 | 
O=C1OCC2(CO1)CC1C=CC2C1 (stereo unspecified) | > 200 | > 200 | 
NC(=O)c1nnc2cc(F)c(F)cc2c1N | > 200 | > 200 | 
COC(=O)C1=C(C(=O)NNc2ccccc2)N(c2cccnc2Cl)C(c2ccccc2)=CC1c1ccccc1 (stereo unspecified) | > 200 | 22.9 | 
CCC1=CCC(P(=O)(c2ccccc2)c2ccccc2)CC1C (stereo unspecified) | > 11.5 | > 11.5 | 
COc1ccc(C2Oc3cc(OC)c(O)cc3[C@@H]2C)cc1 (stereo partly specified) | > 66.1 | 6.46 | 
CONc1ncnc2c1ncn2C1OC(CO)CC1F (stereo unspecified) | > 178 | > 178 | 
Cc1nc(-n2nc(-c3ccccc3)cc2-c2ccccc2)sc1C(/C=C/c1ccc([N+](=O)[O-])cc1)=N/NC(N)=S | > 33.1 | 26.9 | 
CC(C)CN1CC(=O)N2Cc3ccccc3CN2C(=O)C1 | > 200 | > 200 | 
CC1(C)Oc2ncnc(N)c2C1c1ccccc1 (stereo unspecified) | > 1020 | 457 | 
NC1=C(Cl)C(=O)c2ccccc2C1=O | > 200 |  | 
